# Entries after “also recorded” stand apart in the source; their conditions may differ.
# Key:
# Assay type in all cases: cell-based
# C2C12 mouse myoblasts [1] = assay: Stress relaxation test (step strain) fitted to the standard linear solid (SLS) model
# Procedure: (§1) Polymeric solutions of polystyrene (Scientific Polymer Products Inc., Ontario, N.Y., Mw: 2×10^6 g·mol^−1) dissolved in xylene (Fisher Scientific, Pittsburgh, Pa.) at 14% and 5% (w/w) were prepared. Plastic coverslips (Fisher Scientific, Pittsburgh, Pa.) were cut to hollow frames and used as substrates. Suspended and aligned polystyrene (PS) nanofibers of varying diameters, spacing and orientation were deposited onto a rotating plastic hollow frame in criss-crossed patterns using the STEP platform at room temperature and 15% relative humidity. […]
# As cells experience forces, interactions between cytosol and cytoskeletal structures within their semi-permeable membrane elicit strain-rate dependent responses, but identifying physiological mechanisms for this behavior has proven difficult [Janmey, P. A., et al., J. Biol. Chem. 1994; 269:32503-13; Darling, E. M., et al., Biophys. […] Since viscoelasticity can alter the measured force at different strain rates, it is nonetheless an important parameter to qualitatively describe even without complete knowledge of the contribution of individual cellular components [Ketene, A. N., et al., Integr. […] Viscoelastic response is quantified through the classic stress relaxation test [Nagayama, K., et al., Med. Eng. […]
# C2C12 mouse myoblasts [2] = assay: Nanonet probe system: single-cell force evolution under cyclic sub-failure stretch with drug; conditions: 30-minute period; for reduction in force: cycled at 1× (one stretch per two minutes), strain rate 2 μm/s
# Description: The use of a suspended nanonet platform for measuring C2C12 mouse myoblast forces attached to fibers of three diameters (250, 400, and 800 nm) representing a wide range of structural stiffness (3-50 nN/μm) in connection with the NFM is developed to allow investigations in cell adhesion forces in response to symmetric and asymmetric external perturbation in single and cyclic modes at high magnifications in real time. The combined findings are two-fold: (i) contractility-based inside-out forces are evenly distributed at the edges of the cell, and that overall force magnitudes are dependent on fiber structural stiffness, and (ii) external perturbation in symmetric and asymmetric modes biases cell-fiber failure location, without affecting the outside-in forces of cell-fiber adhesion (FIG. 5). Further measured are forces of (i) cell-cell junctions, (ii) cyclic perturbation of single cells in presence of drugs, and (iii) cancerous single-cells transitioning from a blebbing to pseudopodial morphology.
# as §1, with “humidity. Using a custom solvent evaporation-based fusing method, the nodes of the criss-crossed patterned nanofibers were fused to form STEP nanonets with clamped boundary conditions.” for “humidity.”
# To further evaluate the nanonet probe system for efficacy as a drug testing platform at high magnifications and temporal resolutions, we subjected cells to varying concentrations of the rho kinase (ROCK)-inhibitor Y27632 and monitored its force evolution over the same 30-minute period. […]
# DBTRG-05MG glioma cells [3] = assay: Inside-out contractile single cell force and spreading area on nanonets
# Procedure: (§2) According to one aspect of the methods described herein, using a highly aggressive glioma model (DBTRG-05MG), the platform technology using nanonets fused in crossed patterns manufactured using the non-electrospinning STEP technique serves to quantify single cell force modulation (both inside-out and outside-in) with and without the presence of a cytoskeleton altering drug (cytochalasin D) using suspended and aligned fiber networks (nanonets) beginning to represent the aligned glioma environment. This platform technology allows to measure contractile single cell forces exerted by glioma cells attached to and migrating along the fiber axis (inside-out). Further, the force response of glioma cells attached to two parallel fibers using a probe deflecting the leading fiber (outside-in) is measured. The forces are calculated using beam deflection within the elastic limit. […] The platform technology also allows for measuring changes in cell morphology, such as shape, area, etc. This technology allows the physiologically relevant aligned fiber networks used as ultra-sensitive force (˜nanoNewtons) probes for investigating drug response and efficacy in disease models at the single cell resolution.
# DBTRG-05MG glioma cells [4] = assay: Outside-in force response to a probe deflecting the leading fiber on nanonets
# Procedure: as §2
compound,measurement,setting,value
Cc1ccc2c(c1)C(=O)C1(O)CCN(c3ccccc3)C1=N2 (centres unmarked) [blebbistatin],"relative contributions of SLS parameters k1, k2 and η (normalized)","C2C12 mouse myoblasts [1]; 50 μM blebbistatin, myosin-II disrupted",shifting in the relative contributions from k2 to η; also recorded: shift in major contribution from k2 to η
C[C@@H](N)[C@H]1CC[C@H](C(=O)Nc2ccncc2)CC1 [Y27632],reduction in force,C2C12 mouse myoblasts [2]; 10 μM,38%
same,reduction in force,C2C12 mouse myoblasts [2]; 100 μM,57%
same,reaching a steady-state force value,C2C12 mouse myoblasts [2]; ROCK-inhibited cells versus cyclically-perturbed cells,did not
COC(=O)Nc1nc2ccc(C(=O)c3cccs3)cc2[nH]1 [nocodazole],"relative contributions of SLS parameters k1, k2 and η (normalized)","C2C12 mouse myoblasts [1]; 10 μM nocodazole, microtubules depolymerized",shifting in the relative contributions from k2 to η; also recorded: shift in major contribution from k2 to η
C=C1[C@@H](C)[C@H]2[C@H](Cc3ccccc3)NC(=O)[C@]23[C@H](OC(C)=O)/C=C/[C@@](C)(O)C(=O)[C@@H](C)C/C=C/[C@H]3[C@@H]1O [cytochalasin D],'inside-out' contractile forces,DBTRG-05MG glioma cells [3],decreasing
same,spreading area of single glioma cells,DBTRG-05MG glioma cells [3],compromises the spreading area
same,'outside-in' force response to external strain,DBTRG-05MG glioma cells [4],decreasing

# Reference: US9753023B2, “Nanofiber grid and related methods” (Carnegie Mellon University, priority 2015, dated 2017)
